# Experimental data: ChEMBL document CHEMBL4715770, “Inhibition of Low Molecular Weight Protein Tyrosine Phosphatase by an Induced-Fit Mechanism” (J Med Chem, 2016)
# Legend:
# [1] = biological target: T1, Tyrosine-protein phosphatase non-receptor type 12 (Homo sapiens, UniProt Q05209); assay: Inhibition of His-tagged PTP-PEST (unknown origin) expressed in Escherichia coli BL21 cells using para-nitrophenyl phosphate as substrate incubated for 5 to 10 mins by microplate reader based spectrophotometric analysis
# T1 sequence (Q05209 whole entry): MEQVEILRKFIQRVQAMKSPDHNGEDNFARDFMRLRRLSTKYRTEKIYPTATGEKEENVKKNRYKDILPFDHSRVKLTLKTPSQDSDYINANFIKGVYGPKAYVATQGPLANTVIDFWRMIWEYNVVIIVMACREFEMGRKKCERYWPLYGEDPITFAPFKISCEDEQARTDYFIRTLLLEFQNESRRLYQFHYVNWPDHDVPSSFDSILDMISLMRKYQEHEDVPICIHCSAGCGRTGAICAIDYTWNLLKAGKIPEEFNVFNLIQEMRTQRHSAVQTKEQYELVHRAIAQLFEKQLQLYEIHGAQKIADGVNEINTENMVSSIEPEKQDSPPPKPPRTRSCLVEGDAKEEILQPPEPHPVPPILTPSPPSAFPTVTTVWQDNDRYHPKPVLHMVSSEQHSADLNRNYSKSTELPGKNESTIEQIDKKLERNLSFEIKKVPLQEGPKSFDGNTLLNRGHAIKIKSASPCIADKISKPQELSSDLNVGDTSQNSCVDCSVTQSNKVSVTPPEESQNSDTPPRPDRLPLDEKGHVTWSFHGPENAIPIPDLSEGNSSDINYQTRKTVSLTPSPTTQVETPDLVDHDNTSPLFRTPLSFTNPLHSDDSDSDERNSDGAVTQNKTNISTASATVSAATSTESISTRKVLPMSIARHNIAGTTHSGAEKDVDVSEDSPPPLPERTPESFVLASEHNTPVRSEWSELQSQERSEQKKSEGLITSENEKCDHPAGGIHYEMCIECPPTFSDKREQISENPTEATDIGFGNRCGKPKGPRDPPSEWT
# [2] = biological target: Tyrosine-protein phosphatase non-receptor type 6 (Homo sapiens, UniProt P29350); assay: Inhibition of His-tagged SHP1 (unknown origin) expressed in Escherichia coli BL21 cells using para-nitrophenyl phosphate as substrate incubated for 5 to 10 mins by microplate reader based spectrophotometric analysis
# [3] = biological target: T2, Tyrosine-protein phosphatase non-receptor type 11 (Homo sapiens, UniProt Q06124); assay: Inhibition of His-tagged SHP2 (unknown origin) expressed in Escherichia coli BL21 cells using para-nitrophenyl phosphate as substrate incubated for 5 to 10 mins by microplate reader based spectrophotometric analysis
# T2 sequence (Q06124 whole entry): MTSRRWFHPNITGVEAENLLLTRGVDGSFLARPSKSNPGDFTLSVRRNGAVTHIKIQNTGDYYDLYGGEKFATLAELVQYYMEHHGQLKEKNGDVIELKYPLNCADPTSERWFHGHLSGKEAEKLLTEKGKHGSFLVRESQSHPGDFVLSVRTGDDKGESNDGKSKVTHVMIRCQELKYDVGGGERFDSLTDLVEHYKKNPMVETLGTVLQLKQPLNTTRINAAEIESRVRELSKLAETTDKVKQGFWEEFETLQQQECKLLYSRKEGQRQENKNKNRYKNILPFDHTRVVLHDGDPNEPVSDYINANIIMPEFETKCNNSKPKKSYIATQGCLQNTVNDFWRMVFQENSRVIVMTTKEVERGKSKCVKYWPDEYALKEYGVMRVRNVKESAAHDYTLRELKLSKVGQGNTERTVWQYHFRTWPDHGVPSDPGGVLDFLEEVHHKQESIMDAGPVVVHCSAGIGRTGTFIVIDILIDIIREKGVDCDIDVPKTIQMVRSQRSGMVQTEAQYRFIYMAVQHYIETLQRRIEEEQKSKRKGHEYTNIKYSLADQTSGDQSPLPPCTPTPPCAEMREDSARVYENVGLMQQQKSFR
# [4] = biological target: Receptor-type tyrosine-protein phosphatase beta (Homo sapiens, UniProt P23467); assay: Inhibition of His-tagged PTPbeta (unknown origin) expressed in Escherichia coli BL21 cells using para-nitrophenyl phosphate as substrate incubated for 5 to 10 mins by microplate reader based spectrophotometric analysis
# [5] = biological target: T3, Tyrosine-protein phosphatase non-receptor type 2 (Homo sapiens, UniProt P17706); assay: Inhibition of His-tagged TC-PTP (unknown origin) expressed in Escherichia coli BL21 cells using para-nitrophenyl phosphate as substrate incubated for 5 to 10 mins by microplate reader based spectrophotometric analysis
# T3 sequence (P17706 whole entry): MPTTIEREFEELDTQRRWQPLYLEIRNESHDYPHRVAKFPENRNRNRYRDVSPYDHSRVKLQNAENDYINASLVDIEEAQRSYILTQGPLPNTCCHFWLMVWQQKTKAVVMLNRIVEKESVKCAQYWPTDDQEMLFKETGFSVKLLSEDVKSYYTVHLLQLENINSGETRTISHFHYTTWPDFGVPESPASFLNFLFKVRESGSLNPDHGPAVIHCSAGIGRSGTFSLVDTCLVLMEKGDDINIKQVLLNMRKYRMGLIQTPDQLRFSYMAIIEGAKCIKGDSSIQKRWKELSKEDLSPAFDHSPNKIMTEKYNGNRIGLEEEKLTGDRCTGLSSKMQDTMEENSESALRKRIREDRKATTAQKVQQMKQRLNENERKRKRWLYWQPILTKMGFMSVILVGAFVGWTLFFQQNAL
# [6] = biological target: T4, Dual specificity protein phosphatase 23 (Homo sapiens, UniProt Q9BVJ7); assay: Inhibition of His-tagged VHZ (unknown origin) expressed in Escherichia coli BL21 cells using para-nitrophenyl phosphate as substrate incubated for 5 to 10 mins by microplate reader based spectrophotometric analysis
# T4 sequence (Q9BVJ7 whole entry): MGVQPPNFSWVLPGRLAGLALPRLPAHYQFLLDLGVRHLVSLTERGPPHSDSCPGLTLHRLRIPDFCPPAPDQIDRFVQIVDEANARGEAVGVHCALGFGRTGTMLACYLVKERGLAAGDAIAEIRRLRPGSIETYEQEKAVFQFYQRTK
# [7] = biological target: Receptor-type tyrosine-protein phosphatase S (Homo sapiens, UniProt Q13332); assay: Inhibition of His-tagged PTPsigma (unknown origin) expressed in Escherichia coli BL21 cells using para-nitrophenyl phosphate as substrate incubated for 5 to 10 mins by microplate reader based spectrophotometric analysis
# [8] = biological target: Receptor-type tyrosine-protein phosphatase gamma (Homo sapiens, UniProt P23470); assay: Inhibition of His-tagged PTPgamma (unknown origin) expressed in Escherichia coli BL21 cells using para-nitrophenyl phosphate as substrate incubated for 5 to 10 mins by microplate reader based spectrophotometric analysis
# Receptor-type tyrosine-protein phosphatase gamma, sequence (P23470 whole entry): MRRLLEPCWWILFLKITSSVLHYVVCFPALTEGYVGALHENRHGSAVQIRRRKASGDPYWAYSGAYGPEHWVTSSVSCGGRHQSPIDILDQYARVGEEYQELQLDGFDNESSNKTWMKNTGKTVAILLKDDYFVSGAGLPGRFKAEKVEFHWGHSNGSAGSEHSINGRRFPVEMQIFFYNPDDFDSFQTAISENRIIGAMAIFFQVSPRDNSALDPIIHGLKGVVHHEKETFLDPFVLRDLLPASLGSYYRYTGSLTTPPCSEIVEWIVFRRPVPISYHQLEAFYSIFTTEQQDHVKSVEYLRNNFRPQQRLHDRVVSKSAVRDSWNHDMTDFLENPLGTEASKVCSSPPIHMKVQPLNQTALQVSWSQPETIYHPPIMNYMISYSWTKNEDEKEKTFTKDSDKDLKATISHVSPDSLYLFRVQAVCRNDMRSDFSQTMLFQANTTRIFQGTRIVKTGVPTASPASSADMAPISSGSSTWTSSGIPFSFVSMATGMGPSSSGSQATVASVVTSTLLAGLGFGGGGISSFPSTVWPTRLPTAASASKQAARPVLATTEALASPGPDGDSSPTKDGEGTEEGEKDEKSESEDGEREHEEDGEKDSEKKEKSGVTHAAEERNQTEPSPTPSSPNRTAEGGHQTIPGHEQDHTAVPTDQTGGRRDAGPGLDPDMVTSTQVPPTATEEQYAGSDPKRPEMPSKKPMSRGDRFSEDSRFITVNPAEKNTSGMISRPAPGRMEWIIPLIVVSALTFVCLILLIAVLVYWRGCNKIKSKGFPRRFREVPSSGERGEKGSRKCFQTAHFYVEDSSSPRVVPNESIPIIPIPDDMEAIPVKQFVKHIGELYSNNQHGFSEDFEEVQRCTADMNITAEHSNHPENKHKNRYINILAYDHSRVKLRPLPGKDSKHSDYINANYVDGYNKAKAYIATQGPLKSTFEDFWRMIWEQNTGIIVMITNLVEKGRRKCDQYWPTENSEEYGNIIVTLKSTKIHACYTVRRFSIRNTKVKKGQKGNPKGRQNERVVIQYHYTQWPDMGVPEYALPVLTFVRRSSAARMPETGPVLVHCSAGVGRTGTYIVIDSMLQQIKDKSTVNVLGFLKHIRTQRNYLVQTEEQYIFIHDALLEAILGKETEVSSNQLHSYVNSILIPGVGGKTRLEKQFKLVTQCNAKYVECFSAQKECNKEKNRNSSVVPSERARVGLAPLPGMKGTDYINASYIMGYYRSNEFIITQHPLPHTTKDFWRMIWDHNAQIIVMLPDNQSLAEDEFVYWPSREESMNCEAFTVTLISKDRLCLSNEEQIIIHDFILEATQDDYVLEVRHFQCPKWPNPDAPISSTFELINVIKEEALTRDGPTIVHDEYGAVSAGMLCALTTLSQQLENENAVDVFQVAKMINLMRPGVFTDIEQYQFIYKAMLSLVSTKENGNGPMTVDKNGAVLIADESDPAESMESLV
# Receptor-type tyrosine-protein phosphatase beta, sequence (P23467 whole entry): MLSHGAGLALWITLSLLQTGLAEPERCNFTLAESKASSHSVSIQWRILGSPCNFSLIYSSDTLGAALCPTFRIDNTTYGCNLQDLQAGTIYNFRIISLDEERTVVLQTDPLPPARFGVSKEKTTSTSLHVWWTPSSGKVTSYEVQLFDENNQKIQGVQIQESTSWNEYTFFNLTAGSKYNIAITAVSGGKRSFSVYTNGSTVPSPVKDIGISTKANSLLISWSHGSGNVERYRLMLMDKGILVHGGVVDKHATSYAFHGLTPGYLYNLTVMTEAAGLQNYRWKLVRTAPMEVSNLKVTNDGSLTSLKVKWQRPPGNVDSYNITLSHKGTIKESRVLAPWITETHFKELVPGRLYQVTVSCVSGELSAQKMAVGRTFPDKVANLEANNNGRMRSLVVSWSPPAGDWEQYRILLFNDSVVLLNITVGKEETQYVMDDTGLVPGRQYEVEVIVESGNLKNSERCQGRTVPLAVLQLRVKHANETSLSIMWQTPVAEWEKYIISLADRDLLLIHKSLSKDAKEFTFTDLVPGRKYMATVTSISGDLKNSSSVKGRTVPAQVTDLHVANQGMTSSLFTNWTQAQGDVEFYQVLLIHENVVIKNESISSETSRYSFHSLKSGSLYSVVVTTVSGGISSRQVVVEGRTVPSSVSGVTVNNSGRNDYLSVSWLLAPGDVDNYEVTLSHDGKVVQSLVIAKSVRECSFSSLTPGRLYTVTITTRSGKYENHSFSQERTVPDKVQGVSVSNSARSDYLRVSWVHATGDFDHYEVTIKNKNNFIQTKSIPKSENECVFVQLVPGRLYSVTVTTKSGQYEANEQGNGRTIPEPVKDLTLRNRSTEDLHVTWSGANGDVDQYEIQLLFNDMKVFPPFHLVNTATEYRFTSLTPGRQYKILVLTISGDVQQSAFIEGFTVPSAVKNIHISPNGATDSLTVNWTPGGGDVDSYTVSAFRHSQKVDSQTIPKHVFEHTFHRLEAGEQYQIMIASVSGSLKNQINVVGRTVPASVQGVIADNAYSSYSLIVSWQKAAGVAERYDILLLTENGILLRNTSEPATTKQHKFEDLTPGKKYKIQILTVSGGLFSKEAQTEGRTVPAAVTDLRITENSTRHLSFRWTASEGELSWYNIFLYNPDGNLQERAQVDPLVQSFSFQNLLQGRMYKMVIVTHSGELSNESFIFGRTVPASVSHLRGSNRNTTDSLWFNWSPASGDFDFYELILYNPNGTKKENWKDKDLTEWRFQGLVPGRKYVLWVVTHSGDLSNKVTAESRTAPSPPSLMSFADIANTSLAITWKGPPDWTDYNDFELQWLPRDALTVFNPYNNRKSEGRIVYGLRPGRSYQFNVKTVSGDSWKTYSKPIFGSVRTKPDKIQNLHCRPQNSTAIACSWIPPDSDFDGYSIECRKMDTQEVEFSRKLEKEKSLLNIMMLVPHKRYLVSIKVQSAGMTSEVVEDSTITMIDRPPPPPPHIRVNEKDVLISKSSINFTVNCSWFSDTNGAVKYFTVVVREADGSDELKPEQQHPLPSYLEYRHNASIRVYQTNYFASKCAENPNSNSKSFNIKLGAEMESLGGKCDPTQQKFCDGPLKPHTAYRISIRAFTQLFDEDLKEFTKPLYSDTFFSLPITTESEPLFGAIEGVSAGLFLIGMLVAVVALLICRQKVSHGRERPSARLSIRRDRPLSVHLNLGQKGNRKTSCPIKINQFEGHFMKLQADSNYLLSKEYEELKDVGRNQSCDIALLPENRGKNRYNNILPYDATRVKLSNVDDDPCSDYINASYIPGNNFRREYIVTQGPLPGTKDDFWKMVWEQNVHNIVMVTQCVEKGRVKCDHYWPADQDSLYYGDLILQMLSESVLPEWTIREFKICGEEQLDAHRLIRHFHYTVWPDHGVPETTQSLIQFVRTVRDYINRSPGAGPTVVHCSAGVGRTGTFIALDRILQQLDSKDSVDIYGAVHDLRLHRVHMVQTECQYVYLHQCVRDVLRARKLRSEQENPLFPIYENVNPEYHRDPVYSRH
# Tyrosine-protein phosphatase non-receptor type 6, sequence (P29350 whole entry): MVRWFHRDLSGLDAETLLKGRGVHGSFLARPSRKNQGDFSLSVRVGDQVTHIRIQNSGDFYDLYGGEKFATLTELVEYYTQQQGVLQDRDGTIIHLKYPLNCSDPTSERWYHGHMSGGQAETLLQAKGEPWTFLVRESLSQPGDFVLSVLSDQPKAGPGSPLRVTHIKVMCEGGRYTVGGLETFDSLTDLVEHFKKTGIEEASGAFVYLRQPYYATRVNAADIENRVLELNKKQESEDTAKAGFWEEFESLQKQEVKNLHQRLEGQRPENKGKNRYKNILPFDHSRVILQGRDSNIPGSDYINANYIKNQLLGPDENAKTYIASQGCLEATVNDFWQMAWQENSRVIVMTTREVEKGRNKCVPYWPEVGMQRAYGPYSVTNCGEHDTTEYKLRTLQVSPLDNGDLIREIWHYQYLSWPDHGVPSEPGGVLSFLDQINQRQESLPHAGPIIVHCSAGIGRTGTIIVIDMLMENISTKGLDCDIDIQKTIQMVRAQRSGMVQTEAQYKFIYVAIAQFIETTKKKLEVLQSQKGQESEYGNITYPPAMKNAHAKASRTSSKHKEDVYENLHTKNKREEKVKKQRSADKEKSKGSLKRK
SMILES,IC50 [1],IC50 [2],IC50 [3],IC50 [4],IC50 [5],IC50 [6],IC50 [7],IC50 [8]
O=C(Nc1nc2ccc([N+](=O)[O-])cc2s1)C(c1ccccc1)S(=O)(=O)O (configuration not stated),> 100 µM,> 100 µM,> 100 µM,> 100 µM,> 100 µM,> 100 µM,> 100 µM,> 100 µM
Cc1c(Br)cc(NC(=O)C(c2ccccc2)S(=O)(=O)O)cc1Br (configuration not stated),–,> 200 µM,> 200 µM,> 200 µM,> 200 µM,> 200 µM,> 200 µM,> 200 µM
O=C(Nc1cc(C(F)(F)F)cc(C(F)(F)F)c1)C(c1ccccc1)S(=O)(=O)O (configuration not stated),66.9 µM,> 200 µM,> 200 µM,> 200 µM,> 200 µM,> 200 µM,> 200 µM,> 200 µM
O=C(Nc1ccc(OCc2ccccc2)c(Cl)c1)C(c1ccccc1)S(=O)(=O)O (configuration not stated),–,> 200 µM,–,> 200 µM,> 200 µM,> 200 µM,> 200 µM,> 200 µM
O=C(Nc1ccc(-n2ccnc2)cc1)C(c1ccccc1)S(=O)(=O)O (configuration not stated),> 100 µM,> 100 µM,> 100 µM,> 100 µM,> 100 µM,> 100 µM,> 100 µM,> 100 µM
